Data reported in patent publication US20200281904A1, “PROPHYLACTIC AND/OR THERAPEUTIC AGENT FOR DISEASES INVOLVING IDO EXPRESSION” (TAIHO PHARMACEUTICAL CO., LTD., priority 2017, published 2020).

Experiments:
IDO protein = assay: Inhibitory effect on IDO protein expression, Western blotting; format: cell-based; conditions: human stomach cancer line NCI-N87; IFNγ 100 U/mL; 0.001, 0.01, 0.1 and 1 μM; 24 hours; FIG. 1
Description: Protein expression was detected by a Western blotting method. A human stomach cancer line NCI-N87 (CRL-5822) was purchased from American Type Culture Collection (ATCC). The cells were cultured in RPMI1640 (Wako Pure Chemical Industries, Ltd.) medium supplemented with 10% fetal bovine serum (FBS). The cells were seeded in a 6-well plate (#140675, Nunc) at 1×10^6 cells per well. The cells were cultured in a 5% CO2 incubator at 37° C. for 24 hours, INFγ (PeproTech, Inc.) at 100 U/mL and test substances [tanespimycin (Biotrend), ganetespib, BIIBO21 and Compound 1] in amounts of 0.001 μM, 0.01 μM, 0.1 μM and 1 μM each were then added, and the cells were further cultured for 24 hours. After the culturing, the cells were washed with ice-cooled PBS, and the cells were then lysed with a cytolytic agent. The cell lysate solution was centrifuged, and the soluble fraction was then removed, and subjected to thermal denaturation, followed by protein separation by SDS-PAGE.
10-fold dilution of TBST (Santa Cruz) with Milli-Q water was used as a washing solution, and the TBST solution containing 5% Blocking One (nacalai tesque) was used as an antibody diluting solution.
After completion of SDS-PAGE, the protein was transferred to a PVDF membrane (Trans-Blot Turbo Midi PVDF Transfer Pack, Biorad) by using a blotting device (Trans-Blot Turbo Transfer System, Biorad). The membrane after the transfer was blocked by incubation at room temperature for 60 minutes or more with Blocking One. […] The PVDF membrane was washed three times with the washing solution, and then immersed in SuperSignal West Pico Chemiluminescent Substrate (Thermo Scientific) for detection of GAPDH, or SuperSignal West Dura Extended Duration Substrate (Thermo Scientific) for detection of IDO, and chemiluminescence was detected by using Image Analyzer Amersham Imager 600QC (GE Healthcare Japan Corporation).

[1] = test system: cells expressing IDO due to addition of IFNγ (IDO-positive cells); assay: Suppressive effect on growth in IDO-positive cells (all four lines, result in words); format: cell-based, human; conditions: GIST-T1, HCC827, NCI-H1975, NCI-N87 with IFNγ 100 U/mL; 0.001-10 μM; 72 hours; FIG. 3
Description: (§1) Human stomach cancer line NCI-N87 (CRL-5822), human lung cancer line NCI-H1975 (CRL-5908) and human lung cancer line HCC827 (CRL-2868) were purchased from ATCC, and human gastrointestinal stromal tumor line GIST-T1 (GIST01) was purchased from Cosmo Bio Co., Ltd. NCI-N87, NCI-H1975 and HCC827 were cultured in RPM11640 (Wako Pure Chemical Industries, Ltd.) medium supplemented with 10% FBS, and GIST-T1 was cultured in DMEM (Wako Pure Chemical Industries, Ltd.) medium supplemented with 10% FBS. The IDO protein and GAPDH were detected in the same manner as in Example 1 described above.
The amount of ATP generated from surviving cells was determined by CellTiter-Glo2.0 Assay (# G9243, Promega Corporation) to evaluate the cell growth inhibition ability of test substance. […] The intensity of luminescence was measured using a microplate reader (EnSpire™ Multimode Plate Reader, PerkinElmer Japan Co., Ltd.), and used as an index of the number of surviving cells in each well. Using the intensity of luminescence of a group not treated with a test substance (control group) as a control, the cell survival rate (%) was calculated by using the following equation. […]

HCC827 = assay: Cell growth inhibition, CellTiter-Glo2.0 Assay, IFNγ added; format: cell-based; conditions: Homo sapiens, IFNγ 100 U/mL, 72 hours, number of surviving cells reduced to 50% of control
Description: as §1
(§2) The amount of ATP generated from surviving cells was determined by CellTiter-Glo2.0 Assay (# G9243, Promega Corporation) to evaluate the cell growth inhibition ability of test substance. The cells of GIST-T1, HCC827, NCI-H1975 and NCI-N87 were seeded in 96-well plates (#165305, Thermo Scientific) at 1×10^4 (NCI-N87), 2×10^3 (HCC827 and HCI-H1975) and 3×10^3 (GIST-T1) per well, and cultured in a 5% CO2 incubator at 37° C. for 24 hours. After the culturing for 24 hours, INFγ (PeproTech) at 100 U/mL and a test substance (Compound 1) in amounts of 0.001 μM, 0.003 μM, 0.01 μM, 0.03 μM, 0.1 μM, 0.3 μM, 1 μM, 3 μM and 10 μM each were added, and further cultured for 72 hours. Equivalent amount of CellTiter-Glo2.0 Assay reagent as the medium was added to each well, the mixture was stirred for 2 minutes using a shaker under shading condition, and the plate was then left to stand at room temperature for about 10 minutes. The intensity of luminescence was measured using a microplate reader (EnSpire™ Multimode Plate Reader, PerkinElmer Japan Co., Ltd.), and used as an index of the number of surviving cells in each well. Using the intensity of luminescence of a group not treated with a test substance (control group) as a control, the cell survival rate (%) was calculated by using the following equation. From the obtained survival rate, the concentration (IC50 (μM)), at which the number of surviving cells is reduced to 50% of the control, was determined by a curve fitting regression analysis tool using Regression Analysis Tool XLfit5.3.0.8 (IDBS Ltd.).
(§3) Cell survival rate=T/C×100
(§4) T: Amount of luminescence in wells with a test substance
(§5) C: Amount of luminescence in wells with no test substance

NCI-N87 = assay: as above; format: cell-based; conditions: Homo sapiens, IFNγ 100 U/mL, 72 hours, number of surviving cells reduced to 50% of control
Description: as §1, §2, §3, §4, §5

GIST-T1 = assay: as above; format: cell-based; conditions: Homo sapiens, GISTT1, IFNγ 100 U/mL, 72 hours, number of surviving cells reduced to 50% of control
Description: as §1, §2, §3, §4, §5

NCI-H1975 = assay: as above; format: cell-based; conditions: Homo sapiens, IFNγ 100 U/mL, 72 hours, number of surviving cells reduced to 50% of control
Description: as §1, §2, §3, §4, §5

COc1c(C)cnc(Cn2cnc3c(Cl)nc(N)nc32)c1C [BIIBO21]
inhibitory effect on IDO expression (IDO protein): inhibitory effect on IDO expression in a concentration-dependent manner

CCc1cc(C(N)=O)ccc1-n1nc(C(C)C)c2c(-n3cnc(-c4cnn(C)c4)c3)ccnc21 [Compound 1, 3-ethyl-4-{3-isopropyl-4-(4-(1-methyl-1H-pyrazol-4-yl)-1H-imidazol-1-yl)-1H-pyrazolo[3,4-b]pyridin-1-yl}benzamide]
suppressive effect on cell growth [1]: suppressive effect on cell growth in a concentration-dependent manner
IC50 (HCC827): 1420 nM
IC50 (NCI-N87): 380 nM
IC50 (GIST-T1): 270 nM
IC50 (NCI-H1975): 810 nM
inhibitory effect on IDO expression (IDO protein): inhibitory effect on IDO expression in a concentration-dependent manner

CC(C)c1cc(-c2n[nH]c(=O)n2-c2ccc3c(ccn3C)c2)c(O)cc1O [ganetespib]
inhibitory effect on IDO expression (IDO protein): inhibitory effect on IDO expression in a concentration-dependent manner
